In assay [1] the target is T1, 5-hydroxytryptamine receptor 1A (Rattus norvegicus, UniProt P19327).
T1 sequence (P19327 whole entry): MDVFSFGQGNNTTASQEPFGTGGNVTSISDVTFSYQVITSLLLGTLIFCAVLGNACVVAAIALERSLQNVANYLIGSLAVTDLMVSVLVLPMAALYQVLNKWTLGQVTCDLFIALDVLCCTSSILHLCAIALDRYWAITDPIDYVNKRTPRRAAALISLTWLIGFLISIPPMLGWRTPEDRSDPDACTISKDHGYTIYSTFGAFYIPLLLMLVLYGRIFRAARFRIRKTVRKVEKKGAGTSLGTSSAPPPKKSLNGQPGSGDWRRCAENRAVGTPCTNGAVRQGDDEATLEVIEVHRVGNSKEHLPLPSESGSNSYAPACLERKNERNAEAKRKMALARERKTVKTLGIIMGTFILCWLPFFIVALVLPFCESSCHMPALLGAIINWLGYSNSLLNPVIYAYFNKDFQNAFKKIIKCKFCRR
Description: Inhibition of [3H]8-OH-DPAT binding to 5-hydroxytryptamine 1A receptor of rat frontal cortex membranes

The target in assay [2] is T2, 5-hydroxytryptamine receptor 1A (Homo sapiens) (UniProt P08908).
T2 sequence (whole entry): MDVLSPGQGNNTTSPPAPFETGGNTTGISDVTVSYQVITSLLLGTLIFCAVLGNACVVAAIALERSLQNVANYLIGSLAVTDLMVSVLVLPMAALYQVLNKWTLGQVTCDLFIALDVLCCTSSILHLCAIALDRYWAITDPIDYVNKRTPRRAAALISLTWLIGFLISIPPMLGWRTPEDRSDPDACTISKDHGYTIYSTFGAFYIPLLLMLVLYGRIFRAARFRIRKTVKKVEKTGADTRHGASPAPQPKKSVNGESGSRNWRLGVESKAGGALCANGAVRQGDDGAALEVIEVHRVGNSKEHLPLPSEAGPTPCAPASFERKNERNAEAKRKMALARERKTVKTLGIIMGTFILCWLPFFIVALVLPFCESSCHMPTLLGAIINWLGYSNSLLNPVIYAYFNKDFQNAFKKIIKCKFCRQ
Description: Agonistic efficacy in adenylyl cyclase assay in CHO cells expressing human 5-HT1A receptor (experiment 2). Type of assay: functional, cell-based.

Assay [3] has as its target T2, 5-hydroxytryptamine receptor 1A (Homo sapiens). Description: Agonistic efficacy as adenylyl cyclase assay in CHO cells expressing human 5-HT1A receptor (experiment 1). It counts as functional, cell-based.
Assay [4] addresses T3, 5-hydroxytryptamine receptor 1A (Homo sapiens, UniProt P08908).
T3 sequence (P08908 whole entry): T2 sequence (whole entry)
Description: Potency against human 5-hydroxytryptamine 1A receptor expressed in CHO cells (experiment 1). Type of assay: functional, cell-based.

For assay [5], the target named is T3, 5-hydroxytryptamine receptor 1A. In words: Compound was tested for its potency against human 5-hydroxytryptamine 1A receptor expressed in CHO cells (experiment 2). Type of assay: functional, cell-based.
In assay [6] the target is T2, 5-hydroxytryptamine receptor 1A (Homo sapiens). Description: Antagonistic efficacy as adenylyl cyclase assay in CHO cells expressing human 5-HT1A receptor (experiment 2). It counts as functional, cell-based.
Assay [7] shares this target. In words: Antagonistic efficacy as adenylyl cyclase assay in CHO cells expressing human 5-HT1A receptor (experiment 1). It counts as functional, cell-based.
For assay [8] the target is unchanged. In words: Antagonistic efficacy was evaluated by adenylyl cyclase assay in CHO cells stably expressing the human 5-HT1A receptor. It counts as functional, cell-based.
Assay [9] addresses T3, 5-hydroxytryptamine receptor 1A.
Assay [10] deals with T2, 5-hydroxytryptamine receptor 1A (Homo sapiens). Description: Agonistic efficacy was evaluated by adenylyl cyclase assay in CHO cells stably expressing the human 5-HT1A receptor (experiment 2). Type of assay: functional, cell-based.
For assay [11] the target is unchanged. Description: Antagonistic efficacy was evaluated by adenylyl cyclase assay in CHO cells stably expressing the human 5-HT1A receptor (experiment 2). It counts as functional, cell-based.
The target is the same in assay [12]. In words: Antagonistic efficacy was evaluated by adenylyl cyclase assay in CHO cells stably expressing the human 5-HT1A receptor (experiment 1). It counts as functional, cell-based.
Assay [13] addresses T1, 5-hydroxytryptamine receptor 1A. Description: (§1) Compound was tested for its potency against 5-hydroxytryptamine 1A receptor in rat frontal cortex membranes (experiment 2). It counts as functional, cell membranes, Membrane. The following applies: read-out: pA2 (converted).
Assay [14] shares this target. The assay is described as §1. It counts as cell membranes, Membrane. The note with it: read-out: pA2 (converted).
Assay [15] has the same target. In words: Compound was tested for its potency against 5-hydroxytryptamine 1A receptor in rat frontal cortex membranes (experiment 1). The note with it: read-out: pA2 (converted). Type of assay: cell membranes, Membrane.
For assay [16], the target named is T3, 5-hydroxytryptamine receptor 1A. In words: Compound was tested for its potency against 5-hydroxytryptamine 1A receptor expressed in CHO cells (experiment 2). Type of assay: functional, cell-based.

Regarding `O=C(NCCN1CCN(c2cccc3c2OCCO3)CC1)c1ccc(F)cc1`, the affinity in assay [1], expressed as Ki, was 0.295 nM. In addition, the Efficacy in assay [2] turned out to be 97%; in assay [3], 97%; in assay [6] it was 0%; in assay [7] it was 0%. Moreover, the concentration giving a half-maximal response (EC50) in [4] is 0.955 nM; in [5], 0.851 nM.
On to `O=C(NCCCCN1CCN(c2cccc3c2OCCO3)CC1)c1ccc(F)cc1`, for which the inhibitory constant (Ki) in assay [1] is 1.05 nM. Moreover, the Efficacy turned out to be 85% in assay [2], 81% in [3], 0% in assay [6] and 17% in assay [7]. Besides, the EC50 in assay [4] is 12.6 nM; in assay [5] it was 31.6 nM.
`O=C(NCCN1CCN(c2cccc3c2OCC(CO)O3)CC1)c1ccc(F)cc1` (single isomer, unassigned) [FLESINOXAN] yielded an Efficacy in [8] of 0%. The same compound gave a concentration for a half-maximal effect (EC50) in [9] of 6.61 nM.
Consider `O=C(CCCN1CCN(c2cccc3c2OCCO3)CC1)c1ccccc1`, for which the Efficacy in assay [10] was determined as 67%; in assay [3] it was 71%; in [11] it was 18%; in assay [12] it was 33%. Moreover, the concentration for a half-maximal effect (EC50) in [4] is 2.88 nM; in [5], 2.82 nM.
Take `O=C(CCCN1CCN(c2cccc3c2OCCO3)CC1)c1ccc(F)cc1`: the Ki in [1] is 1.35 nM. Moreover, the Efficacy in assay [2] is 48%; in assay [3] it was 50%; in assay [6], 42%; in [7] it was 22%. Further, the figures for the EC50 in assay [4] and in assay [5] were 5.25 nM and 7.41 nM, respectively.
In turn, `O=C1c2ccccc2S(=O)(=O)N1CCCCN1CCN(c2cccc3c2OCCO3)CC1` showed an inhibition constant Ki in assay [1] of 0.288 nM. Moreover, the Efficacy came to 23% in [2], 11% in [3], 65% in [6] and 68% in assay [7]. Besides, in assay [13], the Kb is 0.363 nM.
As to `O=C1c2ccccc2C(=O)N1CCCCN1CCN(c2cccc3c2OCCO3)CC1`, the Kb in [14] was 0.676 nM; in assay [15], 0.661 nM. Besides, the affinity in [1] corresponds to a Ki of 0.229 nM. Besides, the Efficacy stood at 49% in assay [2], 44% in assay [3], 62% in [6] and 55% in [7]. For the same compound, the values for the half-maximal effective concentration (EC50) in assay [4] and in [5] were 1.35 nM and 5.75 nM, respectively.
With `c1ccc(CCCCN2CCN(c3cccc4c3OCCO4)CC2)cc1`, the Kb in assay [14] is 25.1 nM. The Efficacy in [2] was 50%; in [3], 45%; in assay [6] it was 70%; in assay [7], 74%. Moreover, the concentration giving a half-maximal response (EC50) in assay [4] is 6.76 nM; in [5], 6.03 nM.
Consider `O=C1c2ccccc2C(=O)N1CCN1CCN(c2cccc3c2OCCO3)CC1`, for which the Ki in assay [1] was 31.6 nM. Also, the Efficacy in assay [2] turned out to be 30%; in assay [3], 0%; in [6] it was 2%; in assay [7] it was 0%.
On to `O=C1c2ccccc2S(=O)(=O)N1CCN1CCN(c2cccc3c2OCCO3)CC1`, for which affinity in assay [1] was put at a Ki of 1.23 nM. Also, the values for the concentration giving a half-maximal response (EC50) in assay [16] and in assay [4] were 631 nM and 251 nM, respectively. In addition, the Efficacy in assay [2] was determined as 86%; in [3], 97%; in [6] it was 0%; in [7] it was 0%.
In assay [8], `O=C1c2ccccc2S(=O)(=O)N1CCCCN1CCN(c2ncccn2)CC1` [IPSAPIRONE] returned an Efficacy of 0%. In assay [9], this compound gave an EC50 of 67.6 nM.
Regarding `O=C1c2ccccc2S(=O)(=O)N1CCCCN1CCN(c2cc(Cl)cc3c2OCCO3)CC1` [DU 125530], in assay [1], the inhibitory constant (Ki) was 0.708 nM. The Efficacy came out at 0% in assay [2], 0% in assay [3], 100% in assay [6] and 100% in assay [7]. The Kb in assay [13] was 0.288 nM.

(Values after ChEMBL document CHEMBL1130957, “Functional characteristics of a series of N4-substituted 1-(2,3-dihydro-1,4-benzodioxin-5-yl)piperazines as 5-HT1A receptor ligands. Structure-activity relationships” (Bioorg Med Chem Lett, 1998).)
